{"source": "patent US20220053762A1", "about": "“HERBICIDAL COMPOSITIONS” (Bayer Aktiengesellschaft, priority 2018, published 2022)", "system": "harmful plant species", "assay": "Specific trial examples: binary compositions applied by the post-emergence method, synergistic effect according to Colby (Tables 3.1-3.2)", "type": "in vivo", "method": "When the observed efficacies already exceed the formal sum total of the values of the tests with individual applications, they also exceed the expected value according to Colby, which is calculated using the formula below and is likewise regarded as an indication of synergism (cf. S. R. Colby; in Weeds 15 (1967) p. 20 to 22):\nSeeds or rhizome pieces of mono- and dicotyledonous weeds are placed in sandy loam in pots, covered with soil and grown in a greenhouse under good growth conditions (temperature, air humidity, water supply). Three weeks after sowing, the test plants are treated at the three-leaf stage with the compositions according to the invention. The compositions according to the invention formulated as spray powders or as emulsion concentrates are sprayed onto the green plant parts in various dosages with an application rate of 300 to 800 l/ha of water (equivalent).\nThe sum total of the effects of the individual applications is reported under E^A; Expected values according to Colby are each reported under E^C.\nThe rating period is reported in days after application (DAT).", "data": [{"smiles": "O=C(Nc1ccc(F)cc1F)c1cccnc1Oc1cccc(C(F)(F)F)c1", "note": "[(B2.18) Diflufenican]", "values": [{"measurement": "Herbicidal action against Digitaria sanguinalis", "setting": "28 DAT, g a.i./ha: r8 270, r9 90, r10 30, r11 15, r12 5", "result": 20, "unit": "%"}, {"measurement": "Herbicidal action against Setaria faberi", "setting": "28 DAT, g a.i./ha: r35 270, r36 90, r37 30, r38 15, r39 5, r40 1.67", "result": 0, "unit": "%"}, {"measurement": "Herbicidal action against Setaria viridis", "setting": "28 DAT, g a.i./ha: r51 270, r52 15, r53 5, r54 1.67", "result": 10, "unit": "%"}, {"measurement": "Herbicidal action against Alopecurus myosuroides (sensitive biotype)", "setting": "28 DAT, g a.i./ha: r149 15, r150 5, r151 270, r152 90, r153 30", "result": 0, "unit": "%"}, {"measurement": "Herbicidal action against Papaver rhoeas", "setting": "28 DAT, g a.i./ha: r231 15, r232 5, r233 270", "result": 30, "unit": "%"}, {"measurement": "Herbicidal action against Veronica hederifolia", "setting": "28 DAT, g a.i./ha: r294 5, r295 90", "result": 60, "unit": "%"}, {"measurement": "Herbicidal action against Echinochloa crus-galli", "setting": "(Z32) 28 DAT, g a.i./ha: r372 270, r373 90, r374 30, r375 5", "result": 10, "unit": "%"}, {"measurement": "Herbicidal action against Centaurea cyanus", "setting": "(Z90) 14 DAT, g a.i./ha: r533 16, r534 4, r535 1, r536 90, r537 30", "result": 50, "unit": "%"}, {"measurement": "Herbicidal action against Lamium purpureum L.", "setting": "(Z90) 28 DAT, g a.i./ha: r586 16, r587 30", "result": 10, "unit": "%"}, {"measurement": "Herbicidal action against Lolium rigidum", "setting": "(Z90) 28 DAT, g a.i./ha: r594 16, r595 30", "result": 0, "unit": "%"}, {"measurement": "Herbicidal action against Matricaria inodora", "setting": "(Z90) 28 DAT, g a.i./ha: r602 4, r603 90", "result": 10, "unit": "%"}, {"measurement": "Herbicidal action against Viola tricolor", "setting": "(Z90) 28 DAT, g a.i./ha: r624 4, r625 270", "result": 40, "unit": "%"}, {"measurement": "Herbicidal action against Alopecurus myosuroides", "setting": "(Z119) 14 DAT, g a.i./ha: r632 16, r633 4, r634 30, r635 270", "result": 20, "unit": "%"}, {"measurement": "Herbicidal action against Lolium rigidum", "setting": "(Z119) 14 DAT, g a.i./ha: r682 16, r683 30", "result": 10, "unit": "%"}, {"measurement": "Herbicidal action against Phalaris minor", "setting": "(Z119) 14 DAT, g a.i./ha: r709 4, r710 270", "result": 20, "unit": "%"}, {"measurement": "Herbicidal action against Poa annua L.", "setting": "(Z119) 14 DAT, g a.i./ha: r729 4, r730 270", "result": 20, "unit": "%"}, {"measurement": "Herbicidal action against Centaurea cyanus", "setting": "(Z119) 28 DAT, g a.i./ha: r654 16, r655 30", "result": 10, "unit": "%"}, {"measurement": "Herbicidal action against Galium aparine", "setting": "(Z119) 28 DAT, g a.i./ha: r662 1, r663 270", "result": 20, "unit": "%"}, {"measurement": "Herbicidal action against Lolium rigidum", "setting": "(Z119) 28 DAT, g a.i./ha: r690 16, r691 30", "result": 0, "unit": "%"}, {"measurement": "Herbicidal action against Abutilon theophrasti", "setting": "Z61 28 DAT, g a.i./ha: r459 30, r460 15", "result": 10, "unit": "%"}, {"measurement": "Herbicidal action against Brachiaria platyphylla", "setting": "Z61 28 DAT, g a.i./ha: r479 30, r480 1.7", "result": 10, "unit": "%"}, {"measurement": "Herbicidal action against Eleusine indica", "setting": "Z61 28 DAT, g a.i./ha: r487 270, r488 5", "result": 20, "unit": "%"}]}, {"smiles": "CP(=O)(O)CCC(N)C(=O)O", "note": "(centres unmarked) [(B7.4) Glufosinate]", "values": [{"measurement": "Herbicidal action 28 DAT [%] against Eleusine indica", "setting": "post-emergence, single active compound (A2 series), g a.i./ha: r337 150, r339 5", "result": 50, "unit": "%"}, {"measurement": "Herbicidal action 28 DAT [%] against Kochia scoparia", "setting": "post-emergence, single active compound (A2 series), g a.i./ha: r347 50, r349 5", "result": 10, "unit": "%"}, {"measurement": "Herbicidal action 28 DAT [%] against Polygonum convulvulus", "setting": "post-emergence, single active compound (A2 series), g a.i./ha: r357 50, r359 5", "result": 30, "unit": "%"}, {"measurement": "Herbicidal action 28 DAT [%] against Kochia scoparia", "setting": "post-emergence, single active compound (A3 series), g a.i./ha: r384 50, r386 45, r387 15, r388 5", "result": 10, "unit": "%"}, {"measurement": "Herbicidal action in [%] 14 DAT against Galium aparine", "setting": "post-emergence, single active compound (A4 series), g a.i./ha: r479 16, r480 4, r481 1, r482 150", "result": 30, "unit": "%"}, {"measurement": "Herbicidal action in [%] 28 DAT against Galium aparine", "setting": "post-emergence, single active compound (A4 series), g a.i./ha: r491 16, r492 50", "result": 30, "unit": "%"}, {"measurement": "Herbicidal action in [%] 14 DAT against Lamium purpureum L.", "setting": "post-emergence, single active compound (A4 series), g a.i./ha: r501 4, r502 1, r503 450", "result": 80, "unit": "%"}, {"measurement": "Herbicidal action in [%] 28 DAT against Lamium purpureum L.", "setting": "post-emergence, single active compound (A4 series), g a.i./ha: r512 4, r513 1, r514 450", "result": 60, "unit": "%"}, {"measurement": "Herbicidal action in [%] 28 DAT against Lolium rigidum (resistant bio type)", "setting": "post-emergence, single active compound (A4 series), g a.i./ha: r523 1, r524 450", "result": 20, "unit": "%"}, {"measurement": "Herbicidal action in [%] 14 DAT against Poa annua L.", "setting": "post-emergence, single active compound (A4 series), g a.i./ha: r533 16, r534 450", "result": 40, "unit": "%"}, {"measurement": "Herbicidal action in [%] 28 DAT against Bromus sterilis", "setting": "post-emergence, single active compound (A5 series), g a.i./ha: r617 4, r618 450", "result": 10, "unit": "%"}, {"measurement": "Herbicidal action in [%] 14 DAT against Centaurea cyanus", "setting": "post-emergence, single active compound (A5 series), g a.i./ha: r627 16, r628 1, r629 450, r630 150", "result": 70, "unit": "%"}, {"measurement": "Herbicidal action in [%] 14 DAT against Galium aparine", "setting": "post-emergence, single active compound (A5 series), g a.i./ha: r649 1, r650 150", "result": 30, "unit": "%"}, {"measurement": "Herbicidal action in [%] 14 DAT against Lamium purpureum L.", "setting": "post-emergence, single active compound (A5 series), g a.i./ha: r659 1, r660 450", "result": 80, "unit": "%"}, {"measurement": "Herbicidal action in [%] 28 DAT against Lamium purpureum L.", "setting": "post-emergence, single active compound (A5 series), g a.i./ha: r669 1, r670 450", "result": 60, "unit": "%"}, {"measurement": "Herbicidal action 28 DAT [%] against Setaria faberi", "setting": "post-emergence, single active compound, g a.i./ha: r40 50, r42 15, r43 5", "result": 10, "unit": "%"}, {"measurement": "Herbicidal action 28 DAT [%] against Setaria viridis", "setting": "post-emergence, single active compound, g a.i./ha: r51 50, r53 15, r54 5, r55 1.67", "result": 10, "unit": "%"}, {"measurement": "Herbicidal action 28 DAT [%] against Abutilon theophrasti", "setting": "post-emergence, single active compound, g a.i./ha: r77 450, r79 15, r80 5", "result": 90, "unit": "%"}, {"measurement": "Herbicidal action 28 DAT [%] against Euphorbia heterophylla", "setting": "post-emergence, single active compound, g a.i./ha: r88 150, r89 50, r90 45, r91 15, r92 5", "result": 15, "unit": "%"}, {"measurement": "Herbicidal action 28 DAT [%] against Bromus sterilis", "setting": "post-emergence, single active compound, g a.i./ha: r172 5, r173 1.67, r174 450", "result": 30, "unit": "%"}, {"measurement": "Herbicidal action 28 DAT [%] against Galium aparine", "setting": "post-emergence, single active compound, g a.i./ha: r183 5, r184 50", "result": 0, "unit": "%"}, {"measurement": "Herbicidal action 28 DAT [%] against Lamium purpureum", "setting": "post-emergence, single active compound, g a.i./ha: r204 45, r205 50", "result": 50, "unit": "%"}, {"measurement": "Herbicidal action 28 DAT [%] against Lolium rigidum (sensitive biotype)", "setting": "post-emergence, single active compound, g a.i./ha: r214 15, r215 150, r216 50", "result": 0, "unit": "%"}, {"measurement": "Herbicidal action 28 DAT [%] against Lolium rigidum (resistant biotype)", "setting": "post-emergence, single active compound, g a.i./ha: r224 15, r225 5, r226 150, r227 50", "result": 0, "unit": "%"}, {"measurement": "Herbicidal action 28 DAT [%] against Veronica hederifolia", "setting": "post-emergence, single active compound, g a.i./ha: r292 5, r293 150", "result": 70, "unit": "%"}, {"measurement": "Herbicidal action 28 DAT [%] against Brachiaria platyphylla", "setting": "post-emergence, single active compound, g a.i./ha: r314 50, r316 15, r317 5, r318 1.7", "result": 30, "unit": "%"}, {"measurement": "Herbicidal action 28 DAT [%] against Pharbitis purpurea", "setting": "post-emergence, single active compound, g a.i./ha: r396 50, r398 5", "result": 40, "unit": "%"}, {"measurement": "Herbicidal action in [%] 28 DAT against Poa annua L.", "setting": "post-emergence, single active compound, g a.i./ha: r721 16, r722 450", "result": 30, "unit": "%"}]}]}
